From the Kinase Knowledgebase extract (Sharma et al. 2016) come the findings set out here.

In one assay the target is EGFR (UniProt P00533).
The target of another assay is EGFR (murine) (UniProt P00533). The note with it: nih3t3.
EGFR (murine), sequence (P00533 whole entry, looked up): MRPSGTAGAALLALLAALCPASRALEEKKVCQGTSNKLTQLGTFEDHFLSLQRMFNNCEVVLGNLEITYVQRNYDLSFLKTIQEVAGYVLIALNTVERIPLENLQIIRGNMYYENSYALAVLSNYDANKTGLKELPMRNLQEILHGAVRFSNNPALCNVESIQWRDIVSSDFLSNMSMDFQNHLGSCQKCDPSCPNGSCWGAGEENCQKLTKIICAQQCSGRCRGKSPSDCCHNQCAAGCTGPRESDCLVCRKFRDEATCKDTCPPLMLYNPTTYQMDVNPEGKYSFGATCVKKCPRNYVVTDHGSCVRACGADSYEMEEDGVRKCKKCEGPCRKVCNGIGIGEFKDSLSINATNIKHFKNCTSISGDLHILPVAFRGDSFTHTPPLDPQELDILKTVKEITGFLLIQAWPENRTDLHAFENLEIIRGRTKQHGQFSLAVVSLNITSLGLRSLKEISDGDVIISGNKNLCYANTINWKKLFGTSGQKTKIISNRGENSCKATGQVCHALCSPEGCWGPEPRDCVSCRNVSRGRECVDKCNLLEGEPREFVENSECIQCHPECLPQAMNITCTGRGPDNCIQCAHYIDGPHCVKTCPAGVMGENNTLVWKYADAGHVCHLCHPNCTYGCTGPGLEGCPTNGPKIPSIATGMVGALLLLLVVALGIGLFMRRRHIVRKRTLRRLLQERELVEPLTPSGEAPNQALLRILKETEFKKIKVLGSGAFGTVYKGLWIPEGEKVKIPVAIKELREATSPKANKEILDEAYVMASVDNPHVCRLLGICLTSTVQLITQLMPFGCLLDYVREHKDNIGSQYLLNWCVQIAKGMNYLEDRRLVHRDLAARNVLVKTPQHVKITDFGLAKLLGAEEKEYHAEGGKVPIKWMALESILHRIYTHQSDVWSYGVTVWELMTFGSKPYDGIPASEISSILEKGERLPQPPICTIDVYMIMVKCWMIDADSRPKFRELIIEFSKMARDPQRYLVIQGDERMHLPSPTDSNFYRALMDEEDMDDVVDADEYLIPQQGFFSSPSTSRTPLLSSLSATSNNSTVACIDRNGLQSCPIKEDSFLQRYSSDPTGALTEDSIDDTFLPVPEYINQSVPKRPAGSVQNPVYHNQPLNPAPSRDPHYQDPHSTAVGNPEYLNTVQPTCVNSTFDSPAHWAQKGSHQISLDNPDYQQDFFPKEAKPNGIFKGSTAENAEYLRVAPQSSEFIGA

EGFR, sequence (P00533 whole entry, looked up): as above

What is called IC50 is the midpoint of a concentration-inhibition curve. `CC(C)(C)c1cc(CC2C(=O)Nc3ccc(Cl)cc32)cc(Br)c1O` (configuration not stated) returned an IC50 at EGFR above 100 µM.
Still for that read-out and setting: for `O=C1Nc2cc(-c3cccnc3)ccc2/C1=C\c1ccccc1O` the value was above 100 µM; for `O=C1Nc2cccc(CCO)c2/C1=C\c1ccc(Br)cc1`, above 100 µM; for `COCCc1cccc2c1CC(=O)N2`, above 100 µM.
On EGFR, `CCNC(=O)OCCc1cccc2c1CC(=O)N2` gave an IC50 above 100 µM.
In turn, `CCOCCc1cccc2c1CC(=O)N2` registered an IC50 at EGFR above 100 µM.
`Cc1cccc2c1C(Cc1ccc3[nH]ccc3c1)C(=O)N2` (configuration not stated): the IC50 on EGFR is above 100 µM; with EGFR (murine), above 50 µM.
Take `COc1ccc(/C=C2/C(=O)Nc3cc(-c4cccnc4)ccc32)cc1-c1cccs1`: the 50% inhibitory concentration (IC50) on EGFR is above 100 µM.
In turn, `COc1ccc(/C=C2/C(=O)Nc3cc(-c4cccs4)ccc32)cc1-c1cccs1` gave a half-inhibitory concentration (IC50) at EGFR above 100 µM.
`COc1ccc(/C=C2/C(=O)Nc3cc(-c4ccsc4)ccc32)cc1-c1cccs1` registered an IC50 at EGFR above 100 µM.
The same measure, in the same setting: the figure for `O=C1Cc2c(CCOC(=O)Nc3ccccc3-c3ccccc3)cccc2N1` is above 100 µM; for `CC(C)c1ccc(OCCc2cccc3c2CC(=O)N3)cc1` it is above 100 µM.
In the case of `O=C1Nc2cccc(CCO)c2/C1=C/c1ccc2[nH]ccc2c1`, at EGFR, the half-inhibitory concentration (IC50) is above 100 µM.
Take `COc1ccc(CC2C(=O)Nc3cc(NC(C)=O)ccc32)cc1-c1cccs1` (configuration not stated): the IC50 against EGFR is above 100 µM; with EGFR (murine), above 50 µM.
With `COc1cc(C)c(CC2C(=O)Nc3ccccc32)cc1C(C)C` (configuration not stated), the IC50 against EGFR is above 100 µM.
On EGFR, `Cc1[nH]c(/C=C2/C(=O)Nc3cc(-c4cccnc4)ccc32)c(C)c1CCCN(C)C` came in with a concentration for half-maximal inhibition (IC50) of 12.1 µM.
As to `O=C1Cc2c(CCOC(=S)Nc3ccccc3)cccc2N1`, on EGFR, the concentration for half-maximal inhibition (IC50) was above 100 µM.
Compound `O=C1Cc2c(CCOc3cccc(-c4ccccc4)c3)cccc2N1` had an IC50 against EGFR above 100 µM.
As for `CC(=O)Nc1ccc2c(c1)NC(=O)C2Cc1ccc(OCCN2CCOCC2)c(C2CCCCC2)c1` (configuration not stated), the IC50 at EGFR was above 100 µM.
For the compound `O=C1Nc2cccc(CCO)c2C1Cc1ccccc1` (configuration not stated), on EGFR, the half-inhibitory concentration (IC50) was above 100 µM.
For `O=C1Cc2c(CCOC(=O)NS(=O)(=O)c3ccccc3)cccc2N1`, at EGFR, the IC50 is above 100 µM.
At EGFR, `Cc1[nH]c(/C=C2\C(=O)Nc3cccc(CCOc4cccc(C(C)C)c4)c32)c(C)c1CCCN(C)C` yielded an IC50 above 100 µM.
In turn, `O=C1Nc2cc(-c3ccsc3)ccc2/C1=C\c1ccccc1O` registered an IC50 on EGFR above 100 µM.
Regarding `O=C(Nc1ccc2c(c1)NC(=O)C2Cc1cc(Cl)ccc1O)C1CCCC1` (configuration not stated), the IC50 at EGFR is above 100 µM.
For `COc1ccc(/C(=C2/C(=O)Nc3ccccc32)c2[nH]c(C)cc2C)cc1`, the concentration for half-maximal inhibition (IC50) in the assay with EGFR (murine) was above 50 µM.
With `O=C1Cc2c(CCOC(=O)Nc3ccccc3)cccc2N1`, the IC50 on EGFR is above 100 µM.
Take `Cc1[nH]c(CC2C(=O)Nc3ccc(Cl)cc32)c(C)c1CCCN(C)C` (configuration not stated): the IC50 against EGFR was above 100 µM.
Regarding `COc1ccc(CC2C(=O)Nc3cc(-c4ccccc4)ccc32)c(O)c1` (configuration not stated), the IC50 on EGFR was above 100 µM; with EGFR (murine), above 50 µM.
Taken in the same sequence, the figures for `Cc1[nH]c(CC2C(=O)Nc3ccccc32)c(C)c1CCCN(C)C` (configuration not stated) were above 100 µM and above 50 µM.
Regarding `CC(C)c1cc(CC2C(=O)Nc3ccc(Cl)cc32)cc(C(C)C)c1OCCN1CCOCC1` (configuration not stated), the IC50 against EGFR is above 100 µM.
On to `Cc1[nH]c(/C=C2/C(=O)Nc3cc(-c4cccs4)ccc32)c(C)c1CCCN(C)C`, for which the IC50 against EGFR is above 100 µM.
Still for that read-out and setting: the figure for `CC(C)c1cccc(OCCc2cccc3c2CC(=O)N3)c1` is above 100 µM.
As to `Cc1ccc(O)c(/C=C2\C(=O)Nc3cccc(CCO)c32)n1`, the IC50 was above 100 µM against EGFR and above 50 µM with EGFR (murine).
For the compound `O=C1Nc2cc(-c3ccccc3)ccc2C1Cc1cccc(F)c1O` (configuration not stated), the IC50 against EGFR was above 100 µM; with EGFR (murine), above 50 µM.
At EGFR, `CC(C)c1ccccc1OCCc1cccc2c1CC(=O)N2` gave a 50% inhibitory concentration (IC50) above 100 µM.
The compound `CC(C)(C)NC(=O)OCCc1cccc2c1CC(=O)N2` came in with an IC50 against EGFR above 100 µM.
For the compound `O=C1Nc2ccc(F)cc2C1Cc1ccc(O)c(C2CCCC2)c1` (configuration not stated), the concentration for half-maximal inhibition (IC50) was above 100 µM against EGFR and above 50 µM in the assay with EGFR (murine).
For `COc1ccccc1-c1ccc2c(c1)NC(=O)C2Cc1[nH]c(C)c(CCCN(C)C)c1C` (configuration not stated), the IC50 against EGFR is above 100 µM.
Consider `Cc1cccc(CC2C(=O)Nc3cccc(CCO)c32)n1` (configuration not stated), for which the IC50 is above 100 µM against EGFR and above 50 µM with EGFR (murine).
At EGFR, `Cc1cccc(/C=C2\C(=O)Nc3cccc(CCO)c32)n1` returned an IC50 above 100 µM.
Compound `O=C1Nc2cccc(CCO)c2C1Cc1ccc(Br)cc1` (configuration not stated) gave an IC50 on EGFR above 100 µM.
In turn, `O=C1Cc2c(CCOc3cncc(Cl)c3)cccc2N1` gave an IC50 against EGFR above 100 µM.
Turning to `COc1ccc(-c2cc(CC3C(=O)Nc4ccccc43)c(O)cc2OC)cc1` (configuration not stated), the IC50 against EGFR was above 100 µM.
As for `COc1c(C(C)C)cc(CC2C(=O)Nc3ccccc32)cc1C(C)C` (configuration not stated), the IC50 on EGFR was above 100 µM; with EGFR (murine) it was above 50 µM.
On to `COc1cccc(-c2ccc3c(c2)NC(=O)C3Cc2ccccc2O)c1` (configuration not stated), for which the results for the IC50 against EGFR and in the assay with EGFR (murine) were above 100 µM and above 50 µM, respectively.
Turning to `O=C1Nc2ccccc2C1Cc1ccc2[nH]ccc2c1` (configuration not stated), the IC50 is above 100 µM against EGFR and above 50 µM in the assay with EGFR (murine).
The compound `COc1ccc(/C=C2\C(=O)Nc3cccc(CCO)c32)cc1-c1cccs1` displayed an IC50 on EGFR above 100 µM.
On the same count and under the same terms, for `O=C1Nc2cc(-c3ccccc3)ccc2C1Cc1cc(Br)ccc1O` (configuration not stated) the value was above 100 µM; for `O=C(Nc1ccc2c(c1)NC(=O)C2Cc1cc(Cl)cc(Cl)c1O)C1CCCC1` (configuration not stated), above 100 µM; for `O=C1Cc2c(CCOC(=O)NC3CCCCC3)cccc2N1`, above 100 µM.
In the case of `Cc1[nH]c(/C=C2\C(=O)Nc3cccc(CCOc4ccc(C(C)C)cc4)c32)c(C)c1CCC(=O)O`, the IC50 was above 100 µM at EGFR and above 50 µM with EGFR (murine).
As for `COc1cccc(-c2ccc3c(c2)NC(=O)C3Cc2[nH]c(C)c(CCCN(C)C)c2C)c1` (configuration not stated), the IC50 at EGFR amounted to 48.7 µM.
Still for that read-out and setting: the figure for `Cc1[nH]c(CC2C(=O)Nc3ccc(Br)cc32)c(C)c1CCCN(C)C` (configuration not stated) is above 100 µM.
Turning to `COc1ccc(CC2C(=O)Nc3ccc(CCN4CCOCC4)cc32)cc1-c1ccsc1` (configuration not stated), the IC50 at EGFR is above 100 µM; in the assay with EGFR (murine) it was above 50 µM.
As to `COc1ccc2c(c1)NC(=O)C2Cc1ccc(OC)c(-c2ccsc2)c1` (configuration not stated), the IC50 at EGFR was above 100 µM.
As to `Cc1[nH]c(/C=C2\C(=O)Nc3cccc(CCO)c32)c(C)c1CCCN(C)C`, the values for the IC50 against EGFR and with EGFR (murine) were above 100 µM and 25.3 µM, respectively.
`CC(C)NC(=O)OCCc1cccc2c1CC(=O)N2` displayed an IC50 against EGFR above 100 µM.
On to `COc1ccc(CC2C(=O)Nc3ccc(F)cc32)cc1C1CCCC1` (configuration not stated), for which, at EGFR, the IC50 is above 100 µM.
`O=C1Nc2cccc(CCO)c2/C1=C/c1ccccn1`: the IC50 at EGFR was above 100 µM; in the assay with EGFR (murine) it was 3 µM.
Compound `COc1ccc(-c2ccc3c(c2)NC(=O)C3Cc2[nH]c(C)c(CCCN(C)C)c2C)cc1` (configuration not stated) yielded an IC50 against EGFR above 100 µM.
Take `O=C1Nc2cc(-c3cccs3)ccc2/C1=C\c1ccccc1O`: the IC50 against EGFR is above 100 µM.
On EGFR, `COc1ccc(OCCc2cccc3c2CC(=O)N3)cc1` gave an IC50 above 100 µM.
